Patent US20250101041A1, “POSITIVE ALLOSTERIC MODULATORS OF THE MUSCARINIC ACETYLCHOLINE RECEPTOR M4” (Vanderbilt University, priority 2022, published 2025)
pEC50: −log10 of the molar value.

Molecular target: T1, human mAChR M4 (Homo sapiens, UniProt P08173)
T1 construct: expressed in transfected cells; host or cells: CHO-K1 (American Type Culture Collection), stably expressing hM4 and Gqi5
T1 sequence (P08173 1-479): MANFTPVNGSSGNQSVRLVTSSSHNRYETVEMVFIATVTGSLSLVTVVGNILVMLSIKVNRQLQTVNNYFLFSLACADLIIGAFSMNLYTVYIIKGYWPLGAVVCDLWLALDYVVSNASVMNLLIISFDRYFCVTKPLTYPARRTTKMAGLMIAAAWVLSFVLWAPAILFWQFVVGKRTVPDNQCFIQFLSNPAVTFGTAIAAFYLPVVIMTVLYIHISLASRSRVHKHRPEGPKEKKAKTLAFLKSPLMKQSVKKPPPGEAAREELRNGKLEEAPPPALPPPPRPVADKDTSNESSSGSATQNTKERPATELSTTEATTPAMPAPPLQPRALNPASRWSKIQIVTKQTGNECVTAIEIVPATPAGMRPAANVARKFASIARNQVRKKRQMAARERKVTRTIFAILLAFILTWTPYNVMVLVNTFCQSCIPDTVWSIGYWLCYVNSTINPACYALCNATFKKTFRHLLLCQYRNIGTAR
Assay: mAChR M4 cell-based functional assay: calcium mobilization (Fluo-4, FDSS), potentiation of EC20 acetylcholine response in hM4-Gqi5 CHO-K1 cells
Conditions: human M4; for Emax at 30 µM: CHO-K1, % ACh maximum at 30 μM; for pEC50: potentiation of EC20 acetylcholine response, calcium mobilization
In short: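 CHO-K1 cells stably co-expressing human M4 and chimeric Gqi5, loaded with Fluo-4 AM (50 min, 37 °C). Compounds in 11-point 1:3 series added first; EC20 acetylcholine added at 144 s and again at 230 s. Calcium read on FDSS at 1 Hz; EC50 and Emax from four-parameter logistic fit of potentiated EC20 response.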

| SMILES | Emax at 30 µM | pEC50 |
| --- | --- | --- |
| Cc1cc(=O)n2nc(N3CCc4ncc(Nc5ccnn5C)cc4C3)c(C)cc2n1 [Compound 2-20, 2,8-dimethyl-7-(3-((1-methyl-1H-pyrazol-5-yl)amino)-7,8-dihydro-1,6-naphthyridin-6(5H)-yl)-4H-pyrimido[1,2-b]pyridazin-4-one] | 88% | 6.78 |
| Cc1cc(=O)n2nc(N3CCc4ncc(N5CCO[C@H](C)C5)cc4C3)c(C)cc2n1 [Compound 2-18, (R)-2,8-dimethyl-7-(3-(2-methylmorpholino)-7,8-dihydro-1,6-naphthyridin-6(5H)-yl)-4H-pyrimido[1,2-b]pyridazin-4-one] | 92% | 7.10 |
| Cc1cc2nccc(=O)n2nc1N1CCc2ncc(-c3cccnc3C(F)F)cc2C1 [Compound 1-425, 7-(3-(2-(difluoromethyl)pyridin-3-yl)-7,8-dihydro-1,6-naphthyridin-6(5H)-yl)-8-methyl-4H-pyrimido[1,2-b]pyridazin-4-one] | 79% | 6.08 |
| Cc1cc2nccc(=O)n2nc1N1CCc2ncc(-c3ccc(C4CC4)nc3)cc2C1 [Compound 1-67, 7-(3-(6-cyclopropylpyridin-3-yl)-7,8-dihydro-1,6-naphthyridin-6(5H)-yl)-8-methyl-4H-pyrimido[1,2-b]pyridazin-4-one] | 80% | 6.48 |
| Cc1cc(F)c(F)cc1-c1cnc2c(c1)CN(c1nn3c(=O)ccnc3cc1C)CC2 [Compound 1-445, 7-(3-(4,5-difluoro-2-methylphenyl)-7,8-dihydro-1,6-naphthyridin-6(5H)-yl)-8-methyl-4H-pyrimido[1,2-b]pyridazin-4-one] | 85% | 7.11 |
| COCc1cc(=O)n2nc(N3CCc4ncc(-c5cnn(C)c5C)cc4C3)c(C)cc2n1 [Compound 1-366, 7-(3-(1,5-dimethyl-1H-pyrazol-4-yl)-7,8-dihydro-1,6-naphthyridin-6(5H)-yl)-2-(methoxymethyl)-8-methyl-4H-pyrimido[1,2-b]pyridazin-4-one] | 72% | 6.55 |
| Cc1cc2nc(C(=O)N3CC(C)(F)C3)cc(=O)n2nc1N1CCc2ncc(C(F)(F)F)cc2C1 [Compound 1-45, 2-(3-fluoro-3-methylazetidine-1-carbonyl)-8-methyl-7-(3-(trifluoromethyl)-7,8-dihydro-1,6-naphthyridin-6(5H)-yl)-4H-pyrimido[1,2-b]pyridazin-4-one] | 100% | 6.78 |
| COCc1cc(=O)n2nc(N3CCc4ncc(-c5ccccc5OC(F)(F)F)cc4C3)c(C)cc2n1 [Compound 1-363, 2-(methoxymethyl)-8-methyl-7-(3-(2-(trifluoromethoxy)phenyl)-7,8-dihydro-1,6-naphthyridin-6(5H)-yl)-4H-pyrimido[1,2-b] pyridazin-4-one] | 65% | 5.51 |
| Cc1cc2nccc(=O)n2nc1N1CCc2ncc(Nc3cccc(F)c3C)cc2C1 [Compound 2-94, 7-(3-((3-fluoro-2-methylphenyl)amino)-7,8-dihydro-1,6-naphthyridin-6(5H)-yl)-8-methyl-4H-pyrimido[1,2-b]pyridazin-4-one] | 84% | 7.11 |
| Cc1c(N2CCc3ncc(-c4cnn(-c5ccccc5F)c4)cc3C2)nn2c(=O)cc(C(F)F)nc2c1C [Compound 1-165, 2-(difluoromethyl)-7-(3-(1-(2-fluorophenyl)-1H-pyrazol-4-yl)-7,8-dihydro-1,6-naphthyridin-6(5H)-yl)-8,9-dimethyl-4H-pyrimido[1,2-b]pyridazin-4-one] | 47% |  |
| Cc1cc(=O)n2nc(N3CCc4ncc(-c5cnc(C)s5)cc4C3)c(C)cc2n1 [Compound 1-31, 2,8-dimethyl-7-(3-(2-methylthiazol-5-yl)-7,8-dihydro-1,6-naphthyridin-6(5H)-yl)-4H-pyrimido[1,2-b]pyridazin-4-one] | 83% | 6.98 |

Results, then the molecule that gave them:

| Emax at 30 µM | pEC50 | SMILES |
| --- | --- | --- |
| 84% | 6.29 | Cc1cc2nccc(=O)n2nc1N1CCc2ncc(N3CCOC(c4cccc(F)c4)C3)cc2C1 (centres unmarked) [Compound 2-61, 7-(3-(2-(3-fluorophenyl)morpholino)-7,8-dihydro-1,6-naphthyridin-6(5H)-yl)-8-methyl-4H-pyrimido[1,2-b]pyridazin-4-one] |
| 97% | 6.78 | Cc1cc(N)ncc1-c1cnc2c(c1)CN(c1nn3c(=O)ccnc3cc1C)CC2 [Compound 1-404, 7-(3-(6-amino-4-methylpyridin-3-yl)-7,8-dihydro-1,6-naphthyridin-6(5H)-yl)-8-methyl-4H-pyrimido[1,2-b]pyridazin-4-one] |
| 79% | 6.24 | Cc1cc(=O)n2nc(N3CCc4ncc(-c5cnn(C6CC6)c5)cc4C3)c(C)c(C)c2n1 [Compound 1-183, 7-(3-(1-cyclopropyl-1H-pyrazol-4-yl)-7,8-dihydro-1,6-naphthyridin-6(5H)-yl)-2,8,9-trimethyl-4H-pyrimido[1,2-b]pyridazin-4-one] |
| 87% | 7.43 | Cc1cc(=O)n2nc(N3CCc4ncc(N5CCCn6nc(C)cc65)cc4C3)c(C)cc2n1 [Compound 2-21, 2,8-dimethyl-7-(3-(2-methyl-6,7-dihydropyrazolo[1,5-a]pyrimidin-4(5H)-yl)-7,8-dihydro-1,6-naphthyridin-6(5H)-yl)-4H-pyrimido[1,2-b]pyridazin-4-one] |
| 98% | 5.63 | Cc1cc2nccc(=O)n2nc1N1CCc2ncc(-c3ccc(=O)n(C)c3)cc2C1 [Compound 1-49, 8-methyl-7-(3-(1-methyl-6-oxo-1,6-dihydropyridin-3-yl)-7,8-dihydro-1,6-naphthyridin-6(5H)-yl)-4H-pyrimido[1,2-b]pyridazin-4-one] |
| 69% | 6.26 | Cc1cc2nccc(=O)n2nc1N1CCc2ncc(Nc3cccc4c3OCCO4)cc2C1 [Compound 2-72, 7-(3-((2,3-dihydrobenzo[b][1,4]dioxin-5-yl)amino)-7,8-dihydro-1,6-naphthyridin-6(5H)-yl)-8-methyl-4H-pyrimido[1,2-b]pyridazin-4-one] |
| 75% | 7.60 | Cc1cc2ncc(Cl)c(=O)n2nc1N1CCc2ncc(C3CC3)cc2C1 [Compound 1-9, 3-chloro-7-(3-cyclopropyl-7,8-dihydro-1,6-naphthyridin-6(5H)-yl)-8-methyl-4H-pyrimido[1,2-b]pyridazin-4-one] |
| 80% | 5.95 | Cc1cc(=O)n2nc(N3CCc4ncc(-c5ccc(C)c(F)c5)cc4C3)c(C)c(C)c2n1 [Compound 1-196, 7-(3-(3-fluoro-4-methylphenyl)-7,8-dihydro-1,6-naphthyridin-6(5H)-yl)-2,8,9-trimethyl-4H-pyrimido[1,2-b]pyridazin-4-one] |
| 87% | 6.66 | COc1ccccc1Nc1cnc2c(c1)CN(c1nn3c(=O)ccnc3cc1C)CC2 [Compound 2-62, 7-(3-((2-methoxyphenyl)amino)-7,8-dihydro-1,6-naphthyridin-6(5H)-yl)-8-methyl-4H-pyrimido[1,2-b]pyridazin-4-one] |
| 71% | 6.76 | Cc1cc(N2CCc3ncc(N4CCCn5nccc54)cc3C2)nn2c(=O)ccnc12 [Compound 2-3, 7-(3-(6,7-dihydropyrazolo[1,5-a]pyrimidin-4(5H)-yl)-7,8-dihydro-1,6-naphthyridin-6(5H)-yl)-9-methyl-4H-pyrimido[1,2-b]pyridazin-4-one] |
